Earlier results as cited in patent US20220257540A1, “COMPOSITIONS AND METHODS FOR TREATMENT OF HEPATITIS B VIRUS INFECTION” (ANHUI RONGHANG BIOTECH DEVELOPMENT CO., LTD., priority 2019, published 2022).

Biological target: P-gp (Homo sapiens, UniProt P08183)
Settings: cited from earlier work

Chain of P-gp (P08183 whole entry): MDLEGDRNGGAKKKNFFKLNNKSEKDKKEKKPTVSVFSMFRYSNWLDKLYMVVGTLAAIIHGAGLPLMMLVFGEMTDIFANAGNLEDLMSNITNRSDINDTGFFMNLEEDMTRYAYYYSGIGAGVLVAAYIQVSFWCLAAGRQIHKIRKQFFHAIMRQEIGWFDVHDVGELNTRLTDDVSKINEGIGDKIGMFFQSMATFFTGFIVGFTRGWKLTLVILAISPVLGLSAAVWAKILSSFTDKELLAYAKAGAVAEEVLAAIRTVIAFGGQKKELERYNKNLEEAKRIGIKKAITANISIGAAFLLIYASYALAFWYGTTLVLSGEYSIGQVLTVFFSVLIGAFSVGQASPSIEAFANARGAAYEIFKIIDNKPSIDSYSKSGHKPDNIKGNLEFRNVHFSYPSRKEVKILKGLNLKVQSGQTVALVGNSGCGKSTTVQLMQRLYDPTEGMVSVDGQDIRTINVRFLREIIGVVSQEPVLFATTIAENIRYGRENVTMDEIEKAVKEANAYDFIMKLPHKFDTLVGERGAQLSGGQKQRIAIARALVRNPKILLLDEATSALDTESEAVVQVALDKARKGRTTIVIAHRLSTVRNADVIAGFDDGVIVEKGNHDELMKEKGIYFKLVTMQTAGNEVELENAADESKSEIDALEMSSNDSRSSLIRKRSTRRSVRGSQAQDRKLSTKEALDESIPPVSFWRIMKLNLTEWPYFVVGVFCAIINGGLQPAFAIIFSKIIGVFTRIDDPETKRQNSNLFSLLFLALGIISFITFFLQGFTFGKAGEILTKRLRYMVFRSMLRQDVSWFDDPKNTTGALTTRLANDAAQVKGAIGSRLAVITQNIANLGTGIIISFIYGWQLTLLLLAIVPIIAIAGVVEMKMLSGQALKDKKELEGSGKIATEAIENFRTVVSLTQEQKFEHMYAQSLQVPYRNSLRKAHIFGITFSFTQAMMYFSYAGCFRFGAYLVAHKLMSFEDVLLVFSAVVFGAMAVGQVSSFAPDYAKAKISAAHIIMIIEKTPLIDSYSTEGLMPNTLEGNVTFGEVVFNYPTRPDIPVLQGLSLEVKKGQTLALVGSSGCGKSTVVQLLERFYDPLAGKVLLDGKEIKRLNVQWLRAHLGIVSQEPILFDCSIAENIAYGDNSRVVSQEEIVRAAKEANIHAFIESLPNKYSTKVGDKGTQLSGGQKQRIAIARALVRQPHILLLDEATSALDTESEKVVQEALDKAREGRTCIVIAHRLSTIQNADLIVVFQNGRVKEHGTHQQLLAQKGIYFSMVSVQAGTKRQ

SMILES: COc1cc2c(cc1OC)CN(CCc1ccc(NC(=O)c3cc(OC)c(OC)cc3NC(=O)c3cnc4ccccc4c3)cc1)CC2 [XR9576, N-[2-[[4-[2-(6,7-Dimethoxy-3,4-dihydro-1H-isoquinolin-2-yl)ethyl]phenyl]c-arbamoyl]-4,5-dimethoxyphenyl]quinoline-3-carboxamide]
- potency relative to the first and second-generation P-gp inhibitors: about 10 fold

SMILES: CCOC/C=C/c1ccc(-c2nc(-c3ccc(NC(C)C)cc3)c(-c3ccc(NC(C)C)cc3)[nH]2)cc1 [OC144093, 4-[2-[4-[(E)-3-ethoxyprop-1-enyl]phenyl]-4-[4-(propan-2-ylamino)phenyl]-1H-imidazol-5-yl]-N-propan-2-ylaniline]
- potency relative to the first and second-generation P-gp inhibitors: about 10 fold
